Results on two compounds are retold here after paper PMC5972561, “Grapevine fatty acid hydroperoxide lyase generates actin-disrupting volatiles and promotes defence-related cell death” (Journal of Experimental Botany, 2018).

Each structure is given as a SMILES string.

For the assay, the target named is T1, VvHPL1 (VvMTh-HPL1; HPL1) (Vitis vinifera, UniProt F6HID6).
T1 sequence (F6HID6 1-487): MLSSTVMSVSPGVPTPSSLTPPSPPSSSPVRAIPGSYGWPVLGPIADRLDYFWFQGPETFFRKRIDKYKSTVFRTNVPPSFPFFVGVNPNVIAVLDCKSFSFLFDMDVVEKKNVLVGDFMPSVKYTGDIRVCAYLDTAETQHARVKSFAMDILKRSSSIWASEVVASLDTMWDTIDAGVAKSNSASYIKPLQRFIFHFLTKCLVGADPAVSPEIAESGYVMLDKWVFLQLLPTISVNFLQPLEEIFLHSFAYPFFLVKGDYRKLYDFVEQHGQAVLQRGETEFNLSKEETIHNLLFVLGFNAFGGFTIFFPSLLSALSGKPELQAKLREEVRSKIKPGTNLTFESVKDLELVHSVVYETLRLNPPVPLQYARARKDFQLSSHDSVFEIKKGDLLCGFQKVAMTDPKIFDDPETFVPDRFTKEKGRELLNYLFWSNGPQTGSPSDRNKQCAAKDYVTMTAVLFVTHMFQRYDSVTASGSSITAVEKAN
The experiment in a line: SBSE TD-GC-MS of volatile products. The settings on record: 40 µM substrate, 50 mM sodium phosphate pH 7.0, ambient temperature, 2 h; enzyme partially purified. It is filed as biochemical.

On to `CC/C=C\C[C@@H](/C=C/C=C\CCCCCCCC(=O)O)OO` [13(S)-hydroperoxy-9(Z),11(E), 15(Z)-octadecatrienoic acid], for which the “SBSE TD-GC-MS of volatile products” value is 13-HPOT as substrate yielded cis-3-hexenal and trans-2-hexenal.

As for `CCCCC[C@@H](/C=C/C=C\CCCCCCCC(=O)O)OO` [13(S)-hydroperoxy-9(Z), 11(E)-octadecadienoic acid], the “SBSE TD-GC-MS of volatile products” value was “The major product from the conversion of 13-HPOD was hexanal”.
